Results published in patent US12304912B2, “Fused bicyclic RAF inhibitors and methods for use thereof” (Jazz Pharmaceuticals Ireland Limited, priority 2020, dated 2025).
Where a name gives a salt, the structure may show the parent alone. Read-outs that look alike come from different tables or passages of the source.

Columns and labels:
[1] = test system: RAF dimers in HCT-116 cells; experiment: HCT-116 AlphaLISA SureFire pERK1/2 cellular assay (dimer); assay type: cell-based; settings: Homo sapiens
How it was run: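 HCT-116 (KRAS G13D) cells, 30,000/well, pretreated 1 h with 1 μM Encorafenib to induce RAF dimers, washed, then dosed 1 h at 37° C with compound (10-point, top 10 μM, 1/2 log steps) in growth medium. pERK1/2 (T202/Y204) measured by AlphaLISA SureFire; absolute IC50 versus DMSO control.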

[2] = test system: constitutive ERK phosphorylation in WiDr cells; experiment: WiDr AlphaLISA SureFire pERK1/2 cellular assay; assay type: cell-based, human; settings: Homo sapiens; WiDr cells, 2 hr, absolute IC50; read-out: pERK WiDr (2 hr) Abs pIC50 (converted)
Procedure: The human HCT-116 colorectal carcinoma cell line (ATCC CCL-247) endogenously expresses the KRAS^G13D mutation, which leads to constitutive activation of the MAP kinase pathway and phosphorylation of ERK. […] Assay read outs took place 2 or 24 hours after dosing with compounds. On the first day, HCT-116 cells were harvested, resuspended in growth medium (McCoys5A with Glutamax (Life Technologies 36600021) and 10% heat-inactivated fetal bovine serum (Sigma F9665)), and counted. Cells were plated in 100 μl per well in each well of a 96-well culture dish (Sigma CLS3598) to a final density of 30,000 (2 hr read) or 15,000 (24 hr read) cells per well and incubated over night at 37° C. and 5% CO2. On day 2, the growth medium was exchanged for dosing medium (McCoys5A with Glutamax (Life Technologies 36600021) and 1% heat-inactivated fetal bovine serum (Sigma F9665)) and the cells were dosed with compounds to produce a 10-point dose response, where the top concentration was 1 μM and subsequent concentrations were at 1/3 log dilution intervals. A matched DMSO control was included. The cells were subsequently incubated for either 2 or 24 hours at 37° C. and 5% CO2. After incubation, media was removed and the cells were incubated with lysis buffer containing phosphatase inhibitors for 15 minutes at room temperature. Cell lysates were transferred to a 12 area 96 well white Optiplate™ (Perkin Elmer 6005569) and incubated with anti-mouse IgG acceptor beads, a biotinylated anti-ERK1/2 rabbit antibody recognizing both phosphorylated and non-phosphorylated ERK1/2, a mouse antibody targeted to the Thr202/Tyr204 epitope and recognizing phosphorylated ERK proteins only, and streptavidin-coated donor beads. The biotinylated antibody binds to the streptavidin-coated donor beads and the phopsho-ERK1/2 antibody binds to the acceptor beads. Plates were read on an EnVision reader (Perkin Elmer) and excitation of the beads at 680 nm with a laser induced the release of singlet oxygen molecules from the donor beads that trigger energy transfer to the acceptor beads in close proximity, producing a signal that can be measured at […]. Both antibodies bound to phosphorylated ERK proteins, bringing the donor and acceptor beads into close proximity. All data were analyzed using the Dotmatics or GraphPad Prism software packages. Inhibition of ERK phosphorylation was assessed by determination of the absolute IC50 value, which is defined as the concentration of compound required to decrease the level of phosphorylated ERK proteins by 50% when compared to DMSO control.
WiDr AlphaLISA SureFire pERK1/2 Cellular Assay
The human WiDr colorectal adenocarcinoma cell line (ATCC CCL-218) endogenously expresses the BRAF^V600E mutation, which leads to constitutive activation of the MAP kinase pathway and phosphorylation of ERK. […] The main procedure is essentially the same as for HCT-116 cells (above), with the following adjustments to the growth medium (Eagle's Minimum Essential Medium (Sigma M2279) with 1× Glutamax (Life Technologies 35050038), 1× Sodium-Pyruvate (Sigma S8636), and 10% heat-inactivated fetal bovine serum (Sigma F9665)), the dosing medium (Eagle's Minimum Essential Medium (Sigma M2279) with 1× Glutamax (Life Technologies 35050038), 1× Sodium-Pyruvate (Sigma S8636), and 1% heat-inactivated fetal bovine serum (Sigma F9665)), and the seeding densities (2 hr: 50,000 cells per well; 24 hr: 35,000 cells per well). Moreover, the compounds were dosed in 1/2 log dilution intervals with the top concentration of 10 μM.

[3] = Microsomal stability assay, human liver microsomes (HLM); assay type: in vitro ADME; settings: 0.5 mg/mL protein, 1 μM substrate
How it was run: (§1)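 Substrate depletion: 1 μM compound incubated at 37° C. with cryopreserved mouse or human liver microsomes at 0.5 mg·mL^−1 protein. Timed aliquots quenched in ice-cold organic solvent and measured by LC-MS/MS; t1/2 and CLint derived from the slope of ln % remaining versus time.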

[4] = Microsomal stability assay, mouse liver microsomes (MLM); assay type: in vitro ADME; settings: 0.5 mg/mL protein, 1 μM substrate
How it was run: as §1

[5] = Plasma protein binding assay, human plasma (hPPB); assay type: in vitro ADME; settings: 5 μM
How it was run: (§2)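 Equilibrium dialysis of 5 μM compound in previously frozen human or mouse plasma against phosphate buffer, 4 h at 37 °C. Both chambers quantified by LC-MS/MS; % free = (1−((PC−PF)/PC))×100.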

[6] = Plasma protein binding assay, mouse plasma (mPPB); assay type: in vitro ADME; settings: 5 μM
How it was run: as §2

[7] = HCT-116, HCT116 cells pre-dosed with 1 μM Encorafenib, 1 hr, read-out: pERK HCT116 dimer (1 hr) pIC50 (converted)
[8] = equilibrium dialysis 4 hours 37° C.
[9] = HCT-116, HCT116 cells, dimer, 1 hr, read-out: pERK HCT116 dimer (1 hr) plC50 (converted)
[10] = equilibrium dialysis 4 hours at 37° C.

| Structure (SMILES) | IC50 [1, 7] | IC50 [2] | microsomal CLint at 1 μM [3] | microsomal CLint at 1 μM [4] | hPPB (% free) [5, 8] | mPPB (% free) [6, 8] | IC50 ([1]; HCT-116, 1 h, read-out: pERK HCT116 dimer (1 hr) pIC50 (converted)) | IC50 [1, 9] | microsomal CLint at 1 μM ([3]; 37° C.) | microsomal CLint at 1 μM ([4]; 37° C.) | hPPB (% free) [5, 10] | mPPB (% free) [6, 10] | MLM (CLint) ([4]; 37° C.) |
| --- | --- | --- | --- | --- | --- | --- | --- | --- | --- | --- | --- | --- | --- |
| O=C1CCc2c(Oc3ccc4c(c3)CC(c3nc5cc(C(F)(F)F)ncc5[nH]3)CO4)ccnc2N1 (racemic) [Compound 32] | 398 nM | 204 nM | 11.3 µL/min/mg | 8.3 µL/min/mg | 1.3 % free | 3.2 % free | – | – | – | – | – | – | – |
| O=C1CCc2c(Oc3ccc4c(c3)CC(c3nc(-c5cccc(C(F)(F)F)c5)c[nH]3)CO4)ccnc2N1 (stereo not drawn) [Compound 12, 5-[3-[4-[3-(trifluoromethyl)phenyl]-1H-imidazol-2-yl]chroman-6-yl]oxy-3,4-dihydro-1H-1,8-naphthyridin-2-one] | 229 nM | 123 nM | 88.6 µL/min/mg | 15.7 µL/min/mg | <0.1 % free | <0.1 % free | – | – | – | – | – | – | – |
| COc1cc(-c2c[nH]c(C3COc4ccc(Oc5ccnc6c5CCC(=O)N6)cc4C3)n2)ccn1 (stereo not drawn) [Compound 19, 5-[3-[4-(2-methoxy-4-pyridyl)-1H-imidazol-2-yl]chroman-6-yl]oxy-3,4-dihydro-1H-1,8-naphthyridin-2-one] | 347 nM | 1100 nM | 27.8 µL/min/mg | 23 µL/min/mg | 1.9 % free | 1.5 % free | – | – | – | – | – | – | – |
| O=C1CCc2c(Oc3ccc4c(c3)CC(c3nc5cc(C(F)(F)F)ccc5[nH]3)CO4)ccnc2N1 (stereo not drawn) [Compound 22, 5-[3-[6-(trifluoromethyl)-1H-benzimidazol-2-yl]chroman-6-yl]oxy-3,4-dihydro-1H-1,8-naphthyridin-2-one] | 155 nM | 120 nM | 35.9 µL/min/mg | 25.1 µL/min/mg | <0.1 % free | <0.1 % free | – | – | – | – | – | – | – |
| O=C1CCc2c(Oc3ccc4c(c3)CC(c3nc5cc(F)c(F)cc5[nH]3)CO4)ccnc2N1 (stereo not drawn) [Compound 23] | 224 nM | 229 nM | 29.9 µL/min/mg | 30.5 µL/min/mg | 0.5 % free | 0.5 % free | – | – | – | – | – | – | – |
| N#Cc1ccc2[nH]c(C3COc4ccc(Oc5ccnc6c5CCC(=O)N6)cc4C3)nc2c1 (stereo not drawn) [Compound 24] | 155 nM | 501 nM | 12.7 µL/min/mg | 41.6 µL/min/mg | 1.8 % free | 1.9 % free | – | – | – | – | – | – | – |
| O=C1CCc2c(Oc3ccc4c(c3)CC(c3nc5cc(Cl)ccc5[nH]3)CO4)ccnc2N1 (stereo not drawn) [Compound 25] | 115 nM | 129 nM | 50.1 µL/min/mg | 48.5 µL/min/mg | 0.3 % free | 1.5 % free | – | – | – | – | – | – | – |
| CN(C)c1ccc2[nH]c(C3COc4ccc(Oc5ccnc6c5CCC(=O)N6)cc4C3)nc2c1 (stereo not drawn) [Compound 26] | 275 nM | 302 nM | 77.5 µL/min/mg | 89.3 µL/min/mg | 0.7 % free | 1 % free | – | – | – | – | – | – | – |
| Cc1cc2nc(C3COc4ccc(Oc5ccnc6c5CCC(=O)N6)cc4C3)[nH]c2cc1C (stereo not drawn) [Compound 29] | 219 nM | 107 nM | 119 µL/min/mg | 77.6 µL/min/mg | 0.2 % free | 0.6 % free | – | – | – | – | – | – | – |
| O=C1CCc2c(Oc3ccc4c(c3)CN(c3nc(-c5ccccc5)n[nH]3)CC4)ccnc2N1 [Compound 44, 5-[[2-(3-phenyl-1H-1,2,4-triazol-5-yl)-3,4-dihydro-1H-isoquinolin-7-yl]oxy]-3,4-dihydro-1H-1,8-naphthyridin-2-one hydrochloride] | – | 355 nM | 14.2 µL/min/mg | 11 µL/min/mg | 0.3 % free | 0.9 % free | 288 nM | – | – | – | – | – | – |
| O=C(Nc1cc(Oc2ccc3c(c2)CC(c2nc(-c4ccccc4)c[nH]2)CO3)ccn1)C1CC1 (stereo not drawn) [Compound 45, N-[4-[3-(4-phenyl-1H-imidazol-2-yl)chroman-6-yl]oxy-2-pyridyl]cyclopropanecarboxamide] | 89.1 nM | 66.1 nM | 58.1 µL/min/mg | 277 µL/min/mg | 0.2 % free | 0.2 % free | – | – | – | – | – | – | – |
| O=C1CCc2c(Oc3ccc4c(c3)CN(C(=O)Nc3ccc(C(F)(F)F)cc3)CC4)ccnc2N1 [Compound 47] | 64.6 nM | 117 nM | 24.5 µL/min/mg | 32.5 µL/min/mg | 0.7 % free | 0.3 % free | – | – | – | – | – | – | – |
| O=C1CCc2c(Oc3ccc4c(c3)CN(C(=O)Nc3cccc(C(F)(F)F)c3)CC4)ccnc2N1 [Compound 50] | 64.6 nM | 97.7 nM | 70.4 µL/min/mg | 79 µL/min/mg | 1.2 % free | 1.6 % free | – | – | – | – | – | – | – |
| O=C1CCc2c(Oc3ccc4c(c3)CC(c3nc(-c5ccc(C(F)(F)F)nc5)c[nH]3)CO4)ccnc2N1 (stereo not drawn) [Compound 127, 5-[3-[4-[6-(trifluoromethyl)-3-pyridyl]-1H-imidazol-2-yl]chroman-6-yl]oxy-3,4-dihydro-1H-1,8-naphthyridin-2-one] | – | – | – | – | – | – | – | 158 nM | 38.7 µL/min/mg | 13.4 µL/min/mg | 0.6 % free | 0.2 % free | – |
| O=C1CCc2c(Oc3ccc4c(c3)CC(c3nc(-c5cccnc5C(F)(F)F)c[nH]3)CO4)ccnc2N1 (stereo not drawn) [Compound 128, 5-[3-[4-[2-(trifluoromethyl)-3-pyridyl]-1H-imidazol-2-yl]chroman-6-yl]oxy-3,4-dihydro-1H-1,8-naphthyridin-2-one] | – | – | – | – | – | – | – | 263 nM | – | – | 0.9 % free | 1.2 % free | – |
| O=C(Nc1cc(Oc2ccc3c(c2)CC(c2nc(-c4ccccc4)c[nH]2)CO3)ccn1)C1(F)CC1 (stereo not drawn) [Compound 138] | – | – | – | – | – | – | – | 813 nM | 134 µL/min/mg | – | <0.1 % free | <0.1 % free | 277 µL/min/mg |
| O=C(Nc1cc(Oc2ccc3c(c2)CC(c2nc(-c4ccccc4)c[nH]2)CO3)ccn1)C1CC(F)(F)C1 (stereo not drawn) [Compound 139] | – | – | – | – | – | – | – | 219 nM | 99.8 µL/min/mg | – | <0.1 % free | <0.1 % free | 277 µL/min/mg |
